This note sets out measurements from ChEMBL document CHEMBL1201862, “PubChem BioAssay data set” (2004).

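These data come from cells grown in 96-well plates and exposed to compound for 48 hours at five concentrations. The concentration for 50% growth inhibition is given as GI50.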 Active and inactive are the calls of the source. Cut-off read from the data, not from the text of the source: active = GI50 up to about 1.1 µM and inactive = higher.

What all share (assay): growth of human tumour cells (NCI), 48 h
Assay [1] relates to LXFL 529.
For assay [2], the system named is M19-MEL.
Assay [3] concerns XF498.
The subject of assay [4] is SNB-78.
For assay [5], the system named is DMS-114.
Assay [6] concerns DLD-1.
The test system of assay [7] is HOP-18.
In assay [8] the test system is RXF 631.
Assay [9] relates to DMS-273.

In the case of `Nc1nc(N)c(CCCCc2ccccc2)c(/C=C/c2ccc([N+](=O)[O-])cc2)n1`, the GI50 in assay [1] is 3.21 µM (inactive); in assay [2] it was 3.36 µM (inactive); in [3] it was 1.84 µM (inactive); in assay [4] it was 2.59 µM (inactive); in assay [5] it was 1.45 µM (inactive); in assay [6], 2.39 µM (inactive).

For the compound `CC1=C2CC[C@@]3(C)C(=CCC3O)C2(C)CCC1=O` (some centres not stated), the GI50 in [7], in assay [1], in assay [2], in assay [4], in assay [8] and in assay [9] was > 100 µM (inactive) in each case. Further, the GI50 in [5] and in [6] was > 100 µM (inactive) throughout.

Regarding `CCOC(=O)C1=C(O)C(=O)c2ccoc2C1=O`, the GI50 in [7], in assay [2], in assay [3], in assay [4], in assay [9] and in assay [5] was > 100 µM (inactive) each time.

As for `Nc1ccc2ncc(Nc3ccc(F)cc3)nc2c1`, the GI50 in assay [2] is 94.6 µM (inactive); in [3], > 100 µM (inactive); in [4], > 100 µM (inactive); in assay [9], > 100 µM (inactive); in assay [5], 85.3 µM (inactive); in [6] it was > 100 µM (inactive).

Turning to `CC(=O)Oc1c(-c2ccccc2)[nH]c2cc([N+](=O)[O-])c(/C(Cl)=C/c3ccccc3)cc12`, the GI50 in [1] is 3.9 µM (inactive); in [2], 3.31 µM (inactive); in [3], 4.36 µM (inactive); in [4], 3.85 µM (inactive); in assay [5] it was 2.17 µM (inactive); in assay [6], 3.71 µM (inactive).

Take `O=c1c2ccccc2n2cnc3ccc(NCCNCCO)c1c32`: the GI50 in [7] is 2.4 µM (inactive); in assay [1], 2.3 µM (inactive); in [2], 2.96 µM (inactive); in assay [4], 2.06 µM (inactive); in [8], 1.26 µM (inactive); in assay [5] it was 2.04 µM (inactive). For the same compound, in assay [6], the GI50 was 2.59 µM (inactive).

Take `N#CCCN(CCC#N)c1ccc(/C=C(/NC(=O)c2cc([N+](=O)[O-])ccc2Cl)C(=O)NN)cc1`: the GI50 was > 100 µM (inactive) in assay [7]; 54 µM (inactive) in assay [1]; > 100 µM (inactive) in assay [2]; > 100 µM (inactive) in [4]; > 100 µM (inactive) in [9]; > 100 µM (inactive) in assay [6].

Regarding `C[N+](C)=c1nc(N2CCOCC2)ss1`, the GI50 in [1] was > 100 µM (inactive); in assay [3], > 100 µM (inactive); in [4], > 100 µM (inactive); in [8], 0.337 µM (active); in [9], > 100 µM (inactive).

Consider `COc1cc2ccc(/C(C)=N/OC(C)=O)cc2cc1OC`, for which the GI50 in assay [7] is 58.2 µM (inactive); in assay [1], 95.9 µM (inactive); in assay [2], > 100 µM (inactive); in assay [3] it was 83.6 µM (inactive); in assay [4], 92.9 µM (inactive); in assay [8], 97.7 µM (inactive). The GI50 is 73.8 µM (inactive) in assay [9] and > 100 µM (inactive) in assay [5].

Consider `CC#COS(=O)(=O)c1ccc(C)cc1`, for which the GI50 in assay [1] was 41 µM (inactive); in assay [2], 70.1 µM (inactive); in assay [4] it was 63.5 µM (inactive); in [5], 32.7 µM (inactive); in assay [6], 30.8 µM (inactive).

Consider `CC(=O)OCC1OC(n2c(=S)n(-c3ccccc3)c(=O)c3cc(Br)ccc32)C(OC(C)=O)C1OC(C)=O` (configuration not stated), for which the GI50 in [7] is > 100 µM (inactive); in assay [1], 65.3 µM (inactive); in [2] it was > 100 µM (inactive); in assay [3], 71.8 µM (inactive); in assay [4] it was > 100 µM (inactive); in assay [9], > 100 µM (inactive). Further, the GI50 was 99.8 µM (inactive) in [5] and > 100 µM (inactive) in assay [6].

Consider `C=CCC1(CN(C)C)CC/C(=C\c2ccc(OC)cc2)C1=O` (configuration not stated), for which the GI50 was > 100 µM (inactive) in [7]; 47.2 µM (inactive) in assay [1]; 59.8 µM (inactive) in assay [2]; > 100 µM (inactive) in [4]; 25 µM (inactive) in [8]; > 100 µM (inactive) in [9]. For the same compound, the values for the GI50 in assay [5] and in assay [6] were 37.7 µM (inactive) and 34.2 µM (inactive), respectively.

For the compound `c1ccc(C2SCc3nc4ccccc4n32)cc1` (configuration not stated), the GI50 in assay [7] is 4.26 µM (inactive); in assay [2], 41.7 µM (inactive); in assay [3], 20.7 µM (inactive); in assay [4], 95.5 µM (inactive); in assay [9], 33.7 µM (inactive); in assay [5] it was 19 µM (inactive). In addition, the GI50 in assay [6] was 49.5 µM (inactive).

Turning to `COc1ccc(/C=C2\CCC(CN3CCOCC3)C2=O)cc1` (configuration not stated), the GI50 in assay [7] is 5.78 µM (inactive); in assay [1] it was 1.59 µM (inactive); in assay [2], 4.31 µM (inactive); in assay [3] it was 3.56 µM (inactive); in [4] it was 4.86 µM (inactive); in [8] it was 6.52 µM (inactive). Besides, the GI50 in assay [5] was 2.72 µM (inactive); in assay [6], 2.79 µM (inactive).

For `O=C1OC(c2ccccc2)(c2ccccc2)CC1CN1CCOCC1` (configuration not stated), the GI50 was 14.6 µM (inactive) in [7]; 13.9 µM (inactive) in assay [1]; 15.9 µM (inactive) in assay [2]; 18.5 µM (inactive) in assay [8]; 38.2 µM (inactive) in [9]; 18 µM (inactive) in [5]. The GI50 in assay [6] was 17.1 µM (inactive).

Regarding `Clc1ccc(-c2c(C3=NCCN3)nnn2-c2ccccc2)cc1`, the GI50 in [7], in assay [1], in assay [2], in assay [3], in assay [4] and in assay [9] was > 100 µM (inactive) in each case. Besides, the GI50 in assay [5] and in assay [6] was > 100 µM (inactive) in each case.

Regarding `CCC(=O)CCC1=Nc2nnc(CCCCc3nnc4n3C(=O)C(CCC(=O)CC)=N4)n2C1=O`, the GI50 in [1], in [2], in [3], in assay [9], in [5] and in assay [6] was > 100 µM (inactive) throughout.

In the case of `CN(C)CCNC(=O)C1COc2cc(-c3cc(=O)c4ccccc4o3)ccc2O1` (configuration not stated), the GI50 in [7] was 24.4 µM (inactive); in [2], > 100 µM (inactive); in assay [4] it was 24.7 µM (inactive); in [9] it was 18.5 µM (inactive); in assay [6], 27.3 µM (inactive).

`Oc1ccccc1/C=N/Cc1ccco1`: the GI50 in assay [7], in assay [1], in assay [2], in [3], in assay [4] and in assay [8] was > 100 µM (inactive) in each case. The GI50 in [5] and in [6] was > 100 µM (inactive) each time.

For `O=C1C=C(N2CCCC2)C=C(N2CCCC2)C1`, the GI50 in assay [7] was > 100 µM (inactive); in [1], > 100 µM (inactive); in [2], 28.1 µM (inactive); in assay [3], > 100 µM (inactive); in assay [4] it was > 100 µM (inactive); in assay [9], > 100 µM (inactive). The GI50 in assay [5] is 79.6 µM (inactive); in assay [6] it was > 100 µM (inactive).

Take `C=CCC1C(=O)C(C(=O)OC)N2CCc3c([nH]c4ccccc34)C12` (configuration not stated): the GI50 in assay [1], in assay [2], in assay [5] and in assay [6] was > 100 µM (inactive) throughout.

In the case of `COc1ccc(CC(=O)NCCc2ccc(OC)c(OC)c2)cc1Br`, the GI50 in assay [1] is > 100 µM (inactive); in assay [3], 38.7 µM (inactive); in [9] it was > 100 µM (inactive); in assay [5], > 100 µM (inactive); in [6] it was > 100 µM (inactive).

For the compound `Cc1ccccc1C(=O)Oc1ccc(OCc2ccccc2)cc1`, the GI50 was > 100 µM (inactive) in assay [7]; 87.9 µM (inactive) in assay [1]; > 100 µM (inactive) in assay [2]; > 100 µM (inactive) in [3]; > 100 µM (inactive) in assay [4]; > 100 µM (inactive) in [9]. In addition, the GI50 was 28.9 µM (inactive) in assay [5] and > 100 µM (inactive) in [6].

Consider `O=C(CC/C(CC(=O)c1ccc(Cl)cc1)=N/O)Nc1ccc(Cl)c(Cl)c1`, for which the GI50 is > 100 µM (inactive) in [7]; 80.7 µM (inactive) in assay [1]; > 100 µM (inactive) in assay [2]; > 100 µM (inactive) in assay [3]; > 100 µM (inactive) in assay [4]; > 100 µM (inactive) in [8]. The GI50 in assay [9] is > 100 µM (inactive); in assay [5], 65.3 µM (inactive); in [6] it was > 100 µM (inactive).

Regarding `Cc1ccc(S(=O)(=O)C2=c3nc4ccccc4cc3=C3C(=O)c4ccccc4C(=O)C32)cc1` (configuration not stated), the GI50 in assay [1], in [2], in assay [3], in [9], in assay [5] and in assay [6] was > 100 µM (inactive) in each case.

With `Cc1cccc(NC2=NC(=O)C(CC(=O)Nc3cccc(C)c3C)S2)c1` (configuration not stated), the GI50 in assay [1] is > 100 µM (inactive); in assay [2], > 100 µM (inactive); in assay [3], > 100 µM (inactive); in [4] it was > 100 µM (inactive); in [5] it was 63.5 µM (inactive); in assay [6], > 100 µM (inactive).

For `Cc1nc2c(sc(=S)n2-c2ccccc2)c2nc3ccccc3n12`, the GI50 in assay [7], in [1], in assay [2], in assay [4], in [8] and in assay [9] was > 100 µM (inactive) in each case. For the same compound, the GI50 in assay [5] and in assay [6] was > 100 µM (inactive) each time.
